Source: patent publication US6459001B1 (Aventis Pharma S.A., priority 1997, dated 2002)
Structures can show the parent of a compound that is named as a salt.

Experiments:
human αvβ3 receptor = human αvβ3 receptor (Homo sapiens, UniProt P05106+P06756); experiment: Displacement of the binding Vitronectin/Vitronectin receptor (αvβ3), competition test; details: human vitronectin coated plates, 3 hours at ambient temperature, read-out: Competition test Vn/VR (αvβ3) binding IC50 en
Method: 1—Study of the Products of the Invention on the Displacement of the Binding: Vitronectin/Vitronectin Receptor (αvβ3) […]
MaxiSorp 96-well plates are coated overnight at 4° C., with 100 μl of human Vitronectin (cf Yatohgo et al. Cell., Structure and fraction 13: 281-292 (1988)) at 2 μg/ml, (Dilution in coating buffer).
The next day, the wells are emptied and the ligands (Vitronectin) are then fixed (see fixing buffer) for one hour at ambient temperature under gentle agitation.
The wells are washed six times (see washing buffer), then the following are added to each well and in this order:
40 μl of incubation buffer, 10 μl of the dilution of the product to be tested, (the products are diluted in a 50/50 mixture of DMSO-H2O) 50 μl of human αvβ3 receptor (cf Pytela et al. Methods Enzymol (1987) 144:475) (dilution in incubation buffer, to be adapted according to the receptor batch and according to the ligand).
The ligand, the human αvβ3 receptor and the products to be studied are incubated for 3 hours at ambient temperature under gentle agitation.
The wells are again washed six times, then incubated for 2 hours at ambient temperature under gentle agitation, in the presence of 100 μl of anti-receptor, 4B12-HRP antibody coupled to a peroxidase (the 4B12-HRP antibody is diluted in an incubation buffer. The dilution is to be adapted according to the receptor batch).
This kit contains a bottle A of substrate (3,3′,5,5′-tetramethylbenzidine at 0.4 g/l) and a bottle B (H2O2 at 0.02% in a citrate/citric acid buffer). Extemporaneously, a volume of A is mixed with a volume of B, then the reaction mixture is distributed at a rate of 100 μl/well. The enzymatic reaction develops over […] for Vitronectin/αvβ3, then its development is stopped by the addition of 100 μl of 1M phosphoric acid. The optical density is measured at 450 nm. […]
coating buffer: Carbonate 0.05 M, NaOH pH 9.6 fixing buffer: PBS containing 0.5% BSA (pH 7.4) washing buffer: PBS containing 0.05% Tween 20 (pH 7.4)
Expression of the Results:
The following curve is traced: the percentage of binding of the human vitronectin as a function of the logarithm of the concentration of each product tested.
For each product the IC50 is determined according to the following formula:
BO=Maximum binding in the absence of any product
Bmin=Minimum binding in the presence of the highest concentration of product.

[1] = system: bone resorption (skullcaps of new-born mice); experiment: Test of mouse calvarium: bone resorption by release of 45Ca from skullcaps of new-born mice, ex-vivo; details: inhibition of bone resorption (45Ca release) in half-calvaria, 48 hours contact; for inhibition at 10 µM: Mus musculus, read-out: Mouse cavarium % inhibition at 10 μM
Excerpt: 2—Test of Mouse Calvarium
Injection of a tracer dose of ^45Ca (CaCl2) to gestating female mice in order to study bone resorption by measuring the release of ^45Ca from the skullcaps of new-born mice.
Determination of the activity of a molecule on bone resorption, ex-vivo study.
Vehicle: DMSO, H2O/BSA (0.1%)
Dose: Variable ([…] in screening).
Echistatin (ref. H-9010-BACHEM)
^45Ca in the form of an aqueous solution of CaCl2—ref. CES3 AMERSHAM or NEZ-013 NEN.
Vehicle: Physiological serum
Dose: 25 μCi/mouse/0.4 ml
CMRL 1066 with phenol red (ref. 041-01535 M/GIBCO) supplemented by 0.1% BSA and penicillin/streptomycin.
1) Injection of ^45Ca to Gestating Mice (OF1, Strain: Swiss)
a) Preparation of the Labelled Solution:
190 μl of the mother solution of calcium at 2 mci/ml is added to 6 ml of physiological serum.
On the 17th day of gestation the mice receive 400 μl of this solution by intravenous route, that is 25 μCi/mouse.
2) Removal of the Tissue (Skullcap (Calvarium))
Six days after their birth the new-born mice are decapitated, then the head is recovered, and the skin is incised from the nape to the front. The skullcap is removed by cutting it out with scissors, and using a punch two exactly identical half-calvaria (one on the left and one on the right) are cut from the parietal bones. One will serve as the control, the other will be used to test the product to be studied.
Each half calvarium is placed in a well of a 24-well plate, containing 1 ml of medium, on a 100 μm polyethylene and nylex support, in order to avoid all contact with the bottom of the well.
After 24 hours, the polyethylene supports carrying the calvaria are transferred into new 24-well plates containing 1 ml of fresh medium and the products to be tested or their solvents. 200 μl of medium from the first plates is removed from each well and a first count of the radioactivity is carried out (value A).
This change of medium allows all the mechanical stress associated with the removal to be eliminated.
48 hours after putting the tissues in contact with the studied products, 200 μl of medium is removed from each well and counted (value B), so as to determine the quantity of ^45Ca released from the medium during the so-called resorption phase.
The calvarium is then completely demineralized in 1 ml of 5% trichloracetic acid and after digestion, 200 μl is also removed and counted so as to determine the quantity of calcium remaining in the bone (value C). Expression of the results
A % of bone resorption is calculated for each half-calvarium (each well) in the following manner:
% bone resorption=dpm B/dpm (A+B+C)×100
The sum of dpm A+B+C represents the quantity of ^45Ca incorporated in each bone part on the day of removal.
In order to measure the effect of a product, the ratio of the percentage of bone resorption of the treated well and of the corresponding control well is calculated for each point. The value found called the resorption index is comprised between 0 and 1 if the product inhibits bone resorption and is >1 if the product potentializes it. The average of the 6 indices (since there are 6 points/group) of each product is then calculated which gives one index/product. If this index is subtracted from the value 1, the inhibitory power of the product is obtained, which can be expressed as a percentage.
Furthermore a statistical test (Student T-test) is carried out by comparing point/point the individual resorption indices.

Compound: COc1c(OCCC(NC(=O)OCc2ccccc2)C(=O)O)cc2c(c1OC)C1=C(CCC1)C(=NNC1=NCCCCN1)CC2 (racemic) [EX. 31, O-[9,10-Dimethoxy1,2,3,4,5,6-hexahydro4-[(4,5,6,7-tetrahydro1H-1,3-diazepin-2-yl)hydrazono]8-benz(e)azulenyl]N-[(phenylmethoxy)carbonyl]DL-homoserine]
- IC50 (human αvβ3 receptor): 55 nM
- inhibition at 10 µM [1]: 20%

Compound: COc1c(OCCC(NC(=O)OCc2ccccc2)C(=O)O)cc2c(c1OC)C1=C(CCC1)C(=NNC1=NC3CCCCC3N1)CC2 (racemic) [EX. 32, O-[9,10-Dimethoxy1,2,3,4,5,6-hexahydro4-[(3a,4,5,6,7,7a-hexahydro1H-benzimidazol-2-yl)hydrazono]8-benz(e)azulenyl]N-[(phenylmethoxy)carbonyl]DL-homoserine]
- IC50 (human αvβ3 receptor): 35 nM

Compound: 4-((4-(((Amino)iminomethyl)hydrazono)-9,10-dimethoxy-1,2,3,4,5,6-hexahydrobenz(e)azulen-8-yl)oxy)-butanoic Acid [EX. 2]
- IC50 (human αvβ3 receptor): 450 nM
- Mouse cavarium % inhibition at 10 μM [1]: 19%

Compound: 4-((4-(((Amino)iminomethyl)hydrazono)-9,10-dimethoxy-1,2,3,4,5,6-hexahydrobenz(e)azulen-8-yl)oxy)-pentanoic Acid [EX. 3]
- IC50 (human αvβ3 receptor): 2100 nM

Compound: COc1c(OCC(=O)C(C)(C)CC(=O)O)cc2c(c1OC)C1=C(CCC1)C(=NNC1=NCCN1)CC2 [EX. 10, 5-(4((4,5-Dihydro-1H-imidazolin-2-yl)hydrazono)-9,10-dimethoxy-1,2,3,4,5,6-hexahydro-S-benz(e)azulenyl)oxy)-3,3-dimethyl-4-oxo-pentanoic Acid]
- IC50 (human αvβ3 receptor): 800 nM
- inhibition at 10 µM [1]: 8%

Compound: COc1c(OCCC(=O)O)cc2c(c1OC)C1=C(CCC1)C(=NNC1=NCCN1)CC2 [EX. 14, 3-(4((4,5-Dihydro-1H-imidazolin-2-yl)hydrazono)-9,10-dimethoxy-1,2,3,4,5,6-hexahydro-8-benz(e)azulenyl)oxy)-propanoic Acid]
- IC50 (human αvβ3 receptor): 750 nM
- inhibition at 10 µM [1]: 14%

Compound: COc1c(OCCC(NS(=O)(=O)c2cccc3cccnc23)C(=O)O)cc2c(c1OC)C1=C(CCC1)C(=NNC1=NCCN1)CC2 (racemic) [EX. 28, O-[4-[(4,5-Dihydro1H-imidazol-2-yl)hydrazono]9,10-dimethoxy 1,2,3,4,5,6-hexahydro8-benz(e)azulenyl]N-[(8-quinolinyl)sulphonyl]DL-homoserine]
- IC50 (human αvβ3 receptor): 15 nM
- inhibition at 10 µM [1]: 27%

Compound: COc1c(OCCC(NC(=O)OCc2ccccc2)C(=O)OCC(O)CO)cc2c(c1OC)C1=C(CCC1)C(=NNC1=NCCCN1)CC2 (racemic) [EX. 27, (2,3-Dihydroxypropyl) Ester of O-(9,10-Dimethoxy1,2,3,4,5,6-hexahydro 4-[(1,4,5,6-tetrahydro2-pyrimidinyl)hydrazono]-8-benz(e)azulenyl]N-[(phenylmethoxy)carbonyl]DL-homoserine.]
- IC50 (human αvβ3 receptor): 170 nM
- Mouse cavarium % inhibition at 10 μM [1]: 39%

Compound: COc1c(OCCC(NC(=O)OCCCn2cnc(-c3cccnc3)c2)C(=O)O)cc2c(c1OC)C1=C(CCC1)C(=NNC1=NCCN1)CC2 (racemic) [EX. 29, Monohydrochloride of O-[4-[(4,5-Dihydro1H-imidazol-2-yl)hydrazono]9,10-dimethoxy1,2,3,4,5,6-hexahydro8-benz(e)azulenyl]N-[[3-[4-(3-pyridinyl)1H-imidazol-1-yl]propoxy]carbonyl]DL-homoserine]
- IC50 (human αvβ3 receptor): 28 nM
- inhibition at 10 µM [1]: 18%

Compound: O=C(O)CCCOc1ccc2c(c1)C1=C(CCC1)C(=NNC1=NCCN1)CC2 [EX. 20, 4-((4((4,5-Dihydro-1H-imidazol-2-yl)hydrazono)-1,2,3,4,5,6-hexahydro-9-benz(e)azulenyl)oxy)-butanoic Acid]
- IC50 (human αvβ3 receptor): 79 nM
- inhibition at 10 µM [1]: 11%

Compound: COc1c(OCCCC(=O)O)cc2c(c1OC)C1=C(CCC1)C(=NNC1=NCCN1)CC2 [EX. 11, 4-(4((4,5-Dihydro-1H-imidazolin-2-yl)hydrazono)-9,10-dimethoxy-1,2,3,4,5,6-hexahydro-8-benz(e)azulenyl)oxy)-butanoic Acid]
- IC50 (human αvβ3 receptor): 50 nM
- inhibition at 10 µM [1]: 7%

Compound: N=C(N)NN=C1CCc2cc(OCCCCC(=O)O)c3c(c2C2=C1CCC2)OCO3 [EX. 22, 5-((8-(((Amino)iminomethyl)hydrazono)-6,7,8,9,10,11-hexahydro-azuleno(5,6-d)-1,3-benzodioxol-4-yl)-oxy)-pentanoic Acid]
- IC50 (human αvβ3 receptor): 2360 nM

Compound: COc1c(OCCCCC(=O)O)cc2c(c1OC)C1=C(CCC1)C(=NNC1=NCCN1)CC2 [EX. 6, 5-(9,10-dimethoxy-1,2,3,4,5,6-hexahydro-4-(4,5-dihydro-1H-imidazolin-2-yl)hydrazono)-8-benz(e)azulenyl)oxy)-pentanoic Acid]
- IC50 (human αvβ3 receptor): 110 nM
- inhibition at 10 µM [1]: 7.5%

Compound: COc1c(OCCCCCC(=O)O)cc2c(c1OC)C1=C(CCC1)C(=NNC1=NCCN1)CC2 [EX. 8, 6-(4((4,5-Dihydro-1H-imidazolin-2-yl)hydrazono)-9,10-dimethoxy-1,2,3,4,5,6-hexahydro-8-benz(e)azulenyl)oxy)-hexanoic Acid]
- IC50 (human αvβ3 receptor): 2790 nM

Compound: COc1c(OCCC(NC(=O)OCc2ccccc2)C(=O)O)cc2c(c1OC)C1=C(CCC1)C(=NNC1=NCCN1)CC2 (racemic) [EX. 24, O-[4-[(4,5-dihydro-1H-imidazol-2-yl)hydrazono)-9,10-dimethoxy-1,2,3,4,5,6-hexahydro-8-benz(e)azulenyl]-N-[(phenylmethoxy)carbonyl]-DL-homoserine]
- IC50 (human αvβ3 receptor): 30 nM
- inhibition at 10 µM [1]: 18%

Compound: COc1c(OCCC(NC(=O)OCc2ccccc2)C(=O)O)cc2c(c1OC)C1=C(CCC1)C(=NNC1=NCCCN1)CC2 (racemic)
- IC50 (human αvβ3 receptor): 6 nM
- inhibition at 10 µM [1]: 30%

Compound: O=C(O)CCCOc1ccc2c(c1)CCC(=NNC1=NCCN1)C1=C2CCC1 [EX. 21, 4-(4((4,5-Dihydro-1H-imidazolin-2-yl)hydrazono)-1,2,3,4,5,6-hexahydro-8-benz(e)azulenyl)oxy)-butanoic Acid]
- IC50 (human αvβ3 receptor): 37 nM
